Like-named read-outs stand apart in the source and are kept apart here.
Tests used:
[1] = test system: athymic nu/nu NMRI mice with BxPC-3 tumors; assay: BxPC-3-bearing tolerability study; assay type: in vivo, mouse; settings: twice weekly 3 mg/kg, five injections, BxPC-3-bearing NMRI mice
Source text: A larger study was run in 50 athymic nu/nu NMRI mice (10 animals per group) inoculated with BxPC-3 pancreatic cancer cells since the study had been intended as a therapeutic efficacy trial (see section 2.9). Similarly solubilized SS66C derivatives were now included. In this study, the tumor growth rates in all animals were much lower than in any previous or subsequent trials (Figure S16c), so we could only extract data about drug tolerability, not antitumor efficacy. Still, the study confirmed that the solubilized P-SS60-, Me-SS66C-, and P-SS66C- prodrugs of -CBI-TMI, and the corresponding carbamate hydrolysis control P-CC60-CBI-TMI, were tolerated with twice weekly injections at 3 mg/kg, over a course of five injections, in all animals, since no distinct differences of body weight or animal health were seen as compared to the vehicle control (Figure S16a).
a Body weights b Body weights
$ Absolute Tumour Volumes d Absolute Tumour Volumes
Irinotecan Irinotecan Irinotecan Irinotecan
(a,b) Bodyweights (means);
confidence interval). […] Dotted vertical lines indicate days

[2] = test system: A549 cells; assay: Resazurin cytotoxicity assay, A549, 72 h; settings: read-out: IC50(nM): A549
Description: We used A549 lung cancer and HeLa cervical cancer cell lines for initial screening of the prodrugs.
Fi gure S9: Cell ular resazurin-based cytotoxi ci ty as s a y.
Dose -response curves were calculated from at least 27 incremental single concentrations over a range
of at least three log units. Individual experiments with annotated experiment numbers are shown for each prodrug

For `COc1cc2cc(C(=O)N3CC(CCl)c4c3cc(OC(=O)N3CCN(C)C5CSSCC53)c3ccccc43)[nH]c2c(OC)c1OC` (mixture of isomers) [Me-SS66C-CBI-TMI], the tolerability [1] was “tolerated” and the IC50 [2] was 17 nM.

For `COc1cc2cc(C(=O)N3C[C@@H](CCl)c4c3cc(OC(=O)N(CCC(=O)N3CCN(C)CC3)C3CCCCC3)c3ccccc43)[nH]c2c(OC)c1OC` [P-CC60-CBI-TMI], the tolerability [1] was “tolerated” and the IC50 [2] was 1700 nM.

`COc1cc2cc(C(=O)N3C[C@@H](CCl)c4c3cc(OC(=O)N3CCN(C(=O)CCC(=O)N5CCN(C)CC5)[C@H]5CSSC[C@H]53)c3ccccc43)[nH]c2c(OC)c1OC` [P-SS66C-CBI-TMI] was tested, and the tolerability [1] was “tolerated” and the IC50 ([2]; Homo sapiens) was 12 nM.

In the case of `COc1cc2cc(C(=O)N3C[C@@H](CCl)c4c3cc(OC(=O)N(CCC(=O)N3CCN(C)CC3)[C@H]3CCSSC3)c3ccccc43)[nH]c2c(OC)c1OC` [P-SS60-CBI-TMI], the tolerability [1] is reported as “tolerated” and the IC50 [2] is reported as 180 nM.

For `COc1cc2cc(C(=O)N3CC(CCl)c4c3cc(OC(=O)N3CCN(C)C5CSSCC53)c3ccccc43)[nH]c2c(OC)c1OC` (mixture of isomers) [Me-SS66T-CBI-TMI], the IC50 [2] was 5.9 nM.

— paper PMC10141580, “Cyclic Dichalcogenides Extend the Reach of Bioreductive Prodrugs to Harness Thiol/Disulfide Oxidoreductases: Applications to seco-Duocarmycins Targeting the Thioredoxin System” (ACS Central Science, 2023)
